From the NIST ThermoML archive (doi:10.1021/je300557g)

Experiment: xn = mol fraction of the nth substance listed
Details: 101 kPa, Liquid; for mass density: Vibrating tube method

CCCC[n+]1cccc(C)c1.F[B-](F)(F)F [1-butyl-3-methylpyridinium tetrafluoroborate] + CCO
Details | kinematic viscosity, 293.15 K [m2/s] | kinematic viscosity, 303.15 K [m2/s] | kinematic viscosity, 313.15 K [m2/s] | kinematic viscosity, 323.15 K [m2/s] | mass density, 293.15 K [kg/m3] | mass density, 303.15 K [kg/m3] | mass density, 313.15 K [kg/m3] | mass density, 323.15 K [kg/m3]
x1 = 0.0521 | 2.07e-06 | 1.68e-06 | 1.4e-06 | 1.18e-06 | 855.55 | 847.17 | 838.85 | 830.02
x1 = 0.0964 | 2.67e-06 | 2.12e-06 | 1.75e-06 | 1.47e-06 | 900.79 | 892.48 | 884.31 | 875.68
x1 = 0.1964 | 4.31e-06 | 3.36e-06 | 2.71e-06 | 2.24e-06 | 977.43 | 969.49 | 961.48 | 953.37
x1 = 0.321 | 6.84e-06 | 5.15e-06 | 4.19e-06 | 3.39e-06 | 1041.5 | 1033.92 | 1026.2 | 1018.52
x1 = 0.3936 | 9.28e-06 | 6.82e-06 | 5.54e-06 | 4.49e-06 | 1068.86 | 1061.42 | 1053.9 | 1046.35
x1 = 0.4941 | 1.44e-05 | 1.03e-05 | 8.05e-06 | 6.24e-06 | 1098.93 | 1091.66 | 1084.35 | 1076.96
x1 = 0.59 | 2.21e-05 | 1.5e-05 | 1.15e-05 | 8.86e-06 | 1121.77 | 1114.64 | 1107.46 | 1100.21
x1 = 0.691 | 3.66e-05 | 2.32e-05 | 1.76e-05 | 1.28e-05 | 1141.6 | 1134.58 | 1127.48 | 1120.38
x1 = 0.7952 | 6.13e-05 | 3.68e-05 | 2.61e-05 | 1.81e-05 | 1158.8 | 1151.88 | 1144.87 | 1137.9
x1 = 0.85 | 8.37e-05 | 4.86e-05 | 3.28e-05 | 2.23e-05 | 1166.81 | 1159.93 | 1152.99 | 1146.06
x1 = 0.8992 | 0.000111 | 6.25e-05 | 4.03e-05 | 2.67e-05 | 1173.47 | 1166.61 | 1159.75 | 1152.86
x1 = 0.9477 | 0.00015 | 8.29e-05 | 5.08e-05 | 3.29e-05 | 1179.57 | 1172.74 | 1165.95 | 1159.11
